Measurements reported in US8309552B2, “Immunomodulating heterocyclic compounds” (Medigene AG, priority 2003, dated 2012).

Biological target: T1, CD80-CD28 interaction (Homo sapiens, UniProt P33681)
T1 sequence (P33681 35-242 limits assumed): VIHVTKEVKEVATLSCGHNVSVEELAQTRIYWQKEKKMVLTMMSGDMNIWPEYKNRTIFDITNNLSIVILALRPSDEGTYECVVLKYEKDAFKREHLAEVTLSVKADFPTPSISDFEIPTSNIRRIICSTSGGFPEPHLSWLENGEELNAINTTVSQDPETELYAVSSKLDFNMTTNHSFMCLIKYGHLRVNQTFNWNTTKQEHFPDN
Experiment: Homogenous Time Resolved Fluorescence (HTRF) assay, cell free
Format: binding
Details: cell-free HTRF, compound concentration series 100 μM-1.7 nM, 4 hours at room temperature; read-out: Activity (EC50 in the HTRF assay)
Description: Homogenous Time Resolved Fluorescence Assay
The examples described above were tested in a cell free Homogenous Time Resolved Fluorescence (HTRF) assay to determine their activity as inhibitors of the CD80-CD28 interaction.
In the assay, europium and allophycocyanin (APC) are associated with CD28 and CD80 indirectly (through antibody linkers) to form a complex, which brings the europium and APC into close proximity to generate a signal. The complex comprises the following six proteins: fluorescent label 1, linker antibody 1, CD28 fusion protein, CD80 fusion protein, linker antibody 2, and fluorescent label 2. The table below describes these reagents in greater detail.
On formation of the complex, europium and APC are brought into proximity and a signal is generated.
Non-specific interaction was measured by substituting a mouse Fab fragment (C215) for the CD80 mouse Fab fragment fusion protein (1.9 μg/ml). The assay was carried out in black 384 well plates in a final volume of 30 μl. Assay buffer: 50 mM Tris-HCl, 150 mM NaCl pH7.8, containing 0.1% BSA (w/v) added just prior to use.
Compounds were added to the above reagents in a concentration series ranging between 100 μM-1.7 nM. The reaction was incubated for 4 hours at room temperature. Dual measurements were made using a Wallac Victor 1420 Multilabel Counter. First measurement: excitation 340 nm, emission 665 nm, delay 50 μs, window time 200 μs. second measurement: excitation 340 nm, emission 615 nm, delay 50 μs, window time 200 μs. Counts were automatically corrected for fluorescence crossover, quenching and background. The EC50 activities of compounds tested are recorded as: EC50:*=>10 μM,**=1-10 μM,***=<1 μM.

Compound	EC50 [µM]
O=C(NCCOCCO)Nc1ccc(-n2[nH]c3c(nnc4ccccc43)c2=O)cc1 [Example 145]	< 1
O=C(NCCO)Nc1ccc(-n2[nH]c3c(nnc4ccccc43)c2=O)cc1 [Example 146]	< 1
O=C(NCCc1ccccc1)Nc1ccc(-n2[nH]c3c(nnc4ccccc43)c2=O)cc1 [Example 147]	1 to 10
CC(C)NCCCNC(=O)Nc1ccc(-n2[nH]c3c(nnc4ccccc43)c2=O)cc1 [Example 148]	< 1
CC(C)OCCCNC(=O)Nc1ccc(-n2[nH]c3c(nnc4ccccc43)c2=O)cc1 [Example 149]	1 to 10
O=C(NCCCO)Nc1ccc(-n2[nH]c3c(nnc4ccccc43)c2=O)cc1 [Example 150]	< 1
O=C(NCCCCCO)Nc1ccc(-n2[nH]c3c(nnc4ccccc43)c2=O)cc1 [Example 151]	1 to 10
O=C(NCCNc1cccc2ccccc12)Nc1ccc(-n2[nH]c3c(nnc4ccccc43)c2=O)cc1 [Example 152]	> 10
O=C(Nc1ccc(-n2[nH]c3c(nnc4ccccc43)c2=O)cc1)NC1CCOC1=O (stereo not drawn) [Example 153]	1 to 10
COC(=O)CNC(=O)Nc1ccc(-n2[nH]c3c(nnc4ccccc43)c2=O)cc1 [Example 154]	1 to 10
O=C(NCCc1ccc([N+](=O)[O-])cc1)Nc1ccc(-n2[nH]c3c(nnc4ccccc43)c2=O)cc1 [Example 155]	1 to 10
CCOC(=O)CCNC(=O)Nc1ccc(-n2[nH]c3c(nnc4ccccc43)c2=O)cc1 [Example 156]	1 to 10
NC(=O)CNC(=O)Nc1ccc(-n2[nH]c3c(nnc4ccccc43)c2=O)cc1 [Example 157]	1 to 10
CCOC(=O)C(C)NC(=O)Nc1ccc(-n2[nH]c3c(nnc4ccccc43)c2=O)cc1 (stereo not drawn) [Example 158]	1 to 10
CCCCCCCCCCCCOCCCNC(=O)Nc1ccc(-n2[nH]c3c(nnc4ccccc43)c2=O)cc1 [Example 159]	< 1
CCCCOCCCNC(=O)Nc1ccc(-n2[nH]c3c(nnc4ccccc43)c2=O)cc1 [Example 160]	> 10
CSCCCNC(=O)Nc1ccc(-n2[nH]c3c(nnc4ccccc43)c2=O)cc1 [Example 161]	1 to 10
CC(C)(C)OC(=O)NCCCCCCNC(=O)Nc1ccc(-n2[nH]c3c(nnc4ccccc43)c2=O)cc1 [Example 163]	1 to 10

Compound	EC50 [µM]
CCOC(=O)C1CCCC1NC(=O)Nc1ccc(-n2[nH]c3c(nnc4ccccc43)c2=O)cc1 (stereo not drawn) [Example 164]	> 10
C=C(C)CNC(=O)Nc1ccc(-n2[nH]c3c(nnc4ccccc43)c2=O)cc1 [Example 165]	1 to 10
O=C(Nc1ccc(-n2[nH]c3c(nnc4ccccc43)c2=O)cc1)NC1CCOC1=O (stereo not drawn) [Example 166]	1 to 10
CCC(C)NC(=O)Nc1ccc(-n2[nH]c3c(nnc4ccccc43)c2=O)cc1 (stereo not drawn) [Example 167]	1 to 10
CCN(CC)CCCC(C)NC(=O)Nc1ccc(-n2[nH]c3c(nnc4ccccc43)c2=O)cc1 (stereo not drawn) [Example 168]	< 1
O=C(Nc1ccc(-n2[nH]c3c(nnc4ccccc43)c2=O)cc1)NC1CN2CCC1CC2 (stereo not drawn) [Example 169]	< 1
O=CCCNC(=O)Nc1ccc(-n2[nH]c3c(nnc4ccccc43)c2=O)cc1 [Example 170]	> 10
CC(O)CCNC(=O)Nc1ccc(-n2[nH]c3c(nnc4ccccc43)c2=O)cc1 (stereo not drawn) [Example 171]	< 1
COc1ccc2[nH]cc(CCNC(=O)Nc3ccc(-n4[nH]c5c(nnc6ccccc65)c4=O)cc3)c2c1 [Example 172]	1 to 10
CC(C)C(C)NC(=O)Nc1ccc(-n2[nH]c3c(nnc4ccccc43)c2=O)cc1 (stereo not drawn) [Example 173]	1 to 10
COCC(C)NC(=O)Nc1ccc(-n2[nH]c3c(nnc4ccccc43)c2=O)cc1 (stereo not drawn) [Example 174]	1 to 10
CCOC(=O)CC(C)NC(=O)Nc1ccc(-n2[nH]c3c(nnc4ccccc43)c2=O)cc1 (stereo not drawn) [Example 175]	1 to 10
CCN(CC)CCCNC(=O)c1ccc(-n2[nH]c3c(nnc4ccccc43)c2=O)cc1 [Example 176]	< 1
CCCCNC(=O)Nc1ccc(-n2[nH]c3c(nnc4ccccc43)c2=O)cc1 [Example 177]	1 to 10
CSCCNC(=O)Nc1ccc(-n2[nH]c3c(nnc4ccccc43)c2=O)cc1 [Example 178]	1 to 10
O=C(NCCCN1CCOCC1)Nc1ccc(-n2[nH]c3c(nnc4ccccc43)c2=O)cc1 [Example 179]	< 1
O=C(NCCSCc1c(F)cccc1Cl)Nc1ccc(-n2[nH]c3c(nnc4ccccc43)c2=O)cc1 [Example 180]	> 10

The next lines start with the values.

EC50 [µM]	Compound
> 10	CCCCCC(C)NC(=O)Nc1ccc(-n2[nH]c3c(nnc4ccccc43)c2=O)cc1 (stereo not drawn) [Example 181]
< 1	CN1CCC(NC(=O)Nc2ccc(-n3[nH]c4c(nnc5ccccc54)c3=O)cc2)CC1 [Example 183]
1 to 10	O=C(NCCc1ccncc1)Nc1ccc(-n2[nH]c3c(nnc4ccccc43)c2=O)cc1 [Example 184]
< 1	CN(C)CC(C)(C)CNC(=O)Nc1ccc(-n2[nH]c3c(nnc4ccccc43)c2=O)cc1 [Example 185]
< 1	CC1CCCCN1CCCNC(=O)Nc1ccc(-n2[nH]c3c(nnc4ccccc43)c2=O)cc1 (stereo not drawn) [Example 186]
1 to 10	CCC(CC)NC(=O)Nc1ccc(-n2[nH]c3c(nnc4ccccc43)c2=O)cc1 [Example 187]
> 10	O=C(NCCCCc1ccccc1)Nc1ccc(-n2[nH]c3c(nnc4ccccc43)c2=O)cc1 [Example 188]
1 to 10	CCOC(=O)CCC(NC(=O)Nc1ccc(-n2[nH]c3c(nnc4ccccc43)c2=O)cc1)C(=O)OCC (stereo not drawn) [Example 189]
1 to 10	O=C(Nc1ccc(-n2[nH]c3c(nnc4ccccc43)c2=O)cc1)NC1CCC(O)CC1 (stereo not drawn) [Example 190]
> 10	CCOC(=O)CCCNC(=O)Nc1ccc(-n2[nH]c3c(nnc4ccccc43)c2=O)cc1 [Example 192]
< 1	O=C(NCCNCc1ccccc1)Nc1ccc(-n2[nH]c3c(nnc4ccccc43)c2=O)cc1 [Example 193]
> 10	CC(NC(=O)Nc1ccc(-n2[nH]c3c(nnc4ccccc43)c2=O)cc1)C1CCCCC1 (stereo not drawn) [Example 194]
1 to 10	O=C(Nc1ccc(-n2[nH]c3c(nnc4ccccc43)c2=O)cc1)NC1CCOC1=O (stereo not drawn) [Example 195]
1 to 10	O=C(NCCc1ccccn1)Nc1ccc(-n2[nH]c3c(nnc4ccccc43)c2=O)cc1 [Example 196]
1 to 10	O=C(Nc1ccc(-n2[nH]c3c(nnc4ccccc43)c2=O)cc1)NC1CCCN(Cc2ccccc2)C1 (stereo not drawn) [Example 197]
1 to 10	O=C(NCC1CCCO1)Nc1ccc(-n2[nH]c3c(nnc4ccccc43)c2=O)cc1 (stereo not drawn) [Example 198]
> 10	O=C(Nc1ccc(-n2[nH]c3c(nnc4ccccc43)c2=O)cc1)NC1CC2CCC1C2 (stereo not drawn) [Example 199]
> 10	O=C(NCCSCc1ccccc1)Nc1ccc(-n2[nH]c3c(nnc4ccccc43)c2=O)cc1 [Example 200]
> 10	CC1C(NC(=O)Nc2ccc(-n3[nH]c4c(nnc5ccccc54)c3=O)cc2)CC2CC1C2(C)C (stereo not drawn) [Example 201]
> 10	CC1C(NC(=O)Nc2ccc(-n3[nH]c4c(nnc5ccccc54)c3=O)cc2)CC2CC1C2(C)C (stereo not drawn) [Example 202]
> 10	CCCC(C)NC(=O)Nc1ccc(-n2[nH]c3c(nnc4ccccc43)c2=O)cc1 (stereo not drawn) [Example 203]
> 10	O=C(NCC1CCCCCC1)Nc1ccc(-n2[nH]c3c(nnc4ccccc43)c2=O)cc1 [Example 204]
